Source: patent US8269026B2, “Lupane derivatives useful for treating HIV” (priority 2008, dated 2012)
pIC50: −log10 of the molar value.

These compounds were tested on HIV-1 (HIVIIIB) replication in MT2 cell line (assay: HIV-1 replication in MT2 cell line with and without 30% human serum (viral RT activity in supernatant)). Conditions: Human immunodeficiency virus 1, MT2 cells, with 30% human serum, average IC50 if tested more than once, read-out: MT2 (HIVIIIB) with HS 30% IC50 range.
Format: cell-based
Summary of the method: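 Read-out is supernatant reverse transcriptase activity on day 5 post-infection, giving IC50 and IC90. Compounds were titrated in complete medium ± 30% human serum, re-dosed after 3 days, on MT2 cells exposed for 3 h to HIVIIIB at MOI 0.5 then washed.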
In the case of `CC(C)C1=C2C3CCC4[C@@]5(C)CC[C@H](OC(=O)CC(C)(C)C(=O)O)C(C)(C)C5CC[C@@]4(C)[C@]3(C)CC[C@@]2(NC(=O)NCc2ncccn2)CC1=O` (stereo partly drawn) [17-67, 3β-O-(3′,3′-Dimethylsuccinyl)-17β-[N′-(pyrimidin-2-ylmethyl)ureido]-21-oxolup-18-ene], the pIC50 was greater than 6.70. Compound `CC(C)C1=C2C3CCC4[C@@]5(C)CC[C@H](OC(=O)CC(C)(C)C(=O)O)C(C)(C)C5CC[C@@]4(C)[C@]3(C)CC[C@@]2(NC(=O)OCC2(C)CC2)CC1=O` (stereo partly drawn) [20-11, 3β-O-(3′,3′-Dimethylsuccinyl)-17β-(1-methyl-cyclopropylmethoxycarbonylamino)-21-oxolup-18-ene] has a pIC50 greater than 6.70. With `CC(C)C1=C2C3CCC4[C@@]5(C)CC[C@H](OC(=O)CC(C)(C)C(=O)O)C(C)(C)C5CC[C@@]4(C)[C@]3(C)CC[C@@]2(NC(=O)N2CCC(N)CC2)CC1=O` (stereo partly drawn) [17-24, 3β-O-(3′,3′-Dimethylsuccinyl)-17β-[(4-amino-piperidine-1-carbonyl)-amino]-21-oxolup-18-ene] the pIC50 was 6.00 to 6.70. In the case of `Cc1cc(C(=O)N[C@@]23CC[C@]4(C)[C@H](CC[C@@H]5[C@@]6(C)CC[C@H](OC(=O)CC(C)(C)C(=O)O)C(C)(C)[C@@H]6CC[C@]54C)C2=C(C(C)C)C(=O)C3)ccn1` [19-52, 3β-O-(3′,3′-Dimethylsuccinyl)-17β-(2-methylpyridin-4-yl)amido-21-oxolup-18-ene], the pIC50 was greater than 6.70. `CC(C)C1=C2C3CCC4[C@@]5(C)CC[C@H](OC(=O)CC(C)(C)C(=O)O)C(C)(C)C5CC[C@@]4(C)[C@]3(C)CC[C@@]2(NC(=O)CN2CCC2)CC1=O` (stereo partly drawn) [19-73, 3β-O-(3′,3′-Dimethylsuccinyl)-17β-(1-azetidin-acetamido)-21-oxolup-18-ene] was tested, and the pIC50 was greater than 6.70. Compound `CC(C)C1=C2C3CCC4[C@@]5(C)CC[C@H](OC(=O)CC(C)(C)C(=O)O)C(C)(C)C5CC[C@@]4(C)[C@]3(C)CC[C@@]2(NC(=O)OCC2CCN(C)CC2)CC1=O` (stereo partly drawn) [20-18, 3β-O-(3′,3′-Dimethylsuccinyl)-17β-(1-methylpiperidine-4-methoxycarbonylamino)-21-oxolup-18-ene] has a pIC50 greater than 6.70. `CC(C)C1=C2C3CCC4[C@@]5(C)CC[C@H](OC(=O)CC(C)(C)C(=O)O)C(C)(C)C5CC[C@@]4(C)[C@]3(C)CC[C@@]2(NC(=O)NCc2ccncc2)CC1=O` (stereo partly drawn) [17-31, 3β-O-(3′,3′-Dimethylsuccinyl)-17β-[N′-(pyridin-4-ylmethyl)ureido]-21-oxolup-18-ene] was tested, and the pIC50 was greater than 6.70. In the case of `CC(C)C1=C2C3CCC4[C@@]5(C)CC[C@H](OC(=O)CC(C)(C)C(=O)O)C(C)(C)C5CC[C@@]4(C)[C@]3(C)CC[C@@]2(NC(=O)N2CCC(F)(F)CC2)CC1=O` (stereo partly drawn) [17-59, 3β-O-(3′,3′-Dimethylsuccinyl)-17β-[(4,4-difluoro-piperidine-1-carbonyl)-amino]-21-oxolup-18-ene], the pIC50 was greater than 6.70. With `Cc1ccncc1C(=O)N[C@@]12CC[C@]3(C)[C@H](CC[C@@H]4[C@@]5(C)CC[C@H](OC(=O)CC(C)(C)C(=O)O)C(C)(C)[C@@H]5CC[C@]43C)C1=C(C(C)C)C(=O)C2` [19-49, 3β-O-(3′,3′-Dimethylsuccinyl)-17β-(4-methylpyridin-3-yl)amido-21-oxolup-18-ene] the pIC50 was greater than 6.70. For `CCNC(=O)N[C@@]12CC[C@]3(C)[C@H](CC[C@@H]4[C@@]5(C)CC[C@H](OC(=O)CC(C)(C)C(=O)O)C(C)(C)[C@@H]5CC[C@]43C)C1=C(C(C)C)C(=O)C2` [17-2, 3β-O-(3′,3′-Dimethylsuccinyl)-17β-[N′-(ethyl)ureido]-21-oxolup-18-ene], the pIC50 was greater than 6.70. `CC(C)C1=C2[C@H]3CC[C@@H]4[C@@]5(C)CC[C@H](OC(=O)CC(C)(C)C(=O)O)C(C)(C)[C@@H]5CC[C@@]4(C)[C@]3(C)CC[C@@]2(NC(=O)NCc2nccn2C)CC1=O` [17-73, 3β-O-(3′,3′-Dimethylsuccinyl)-17β-[N′-(1-methyl-1H-imidazol-2-yl-methyl)-ureido]-21-oxolup-18-ene] was tested, and the pIC50 was greater than 6.70. `CC(C)C1=C2C3CCC4[C@@]5(C)CC[C@H](OC(=O)CC(C)(C)C(=O)O)C(C)(C)C5CC[C@@]4(C)[C@]3(C)CC[C@@]2(NC(=O)N[C@H](C)C(F)(F)F)CC1=O` (stereo partly drawn) [17-51, 3β-O-(3′,3′-Dimethylsuccinyl)-17β-[N′-((R)-2,2,2-trifluoro-1-methyl-ethyl)-ureido]-21-oxolup-18-ene] gave a pIC50 greater than 6.70. `CC(C)C1=C2[C@H]3CC[C@@H]4[C@@]5(C)CC[C@H](OC(=O)CC(C)(C)C(=O)O)C(C)(C)[C@@H]5CC[C@@]4(C)[C@]3(C)CC[C@@]2(NC(=O)c2ccnn2C)CC1=O` [19-34, 3β-O-(3′,3′-Dimethylsuccinyl)-17β-(1-methyl-1H-pyrazole-5-amido)-21-oxolup-18-ene] showed a pIC50 greater than 6.70. `CC(C)C1=C2C3CCC4[C@@]5(C)CC[C@H](OC(=O)CC(C)(C)C(=O)O)C(C)(C)C5CC[C@@]4(C)[C@]3(C)CC[C@@]2(NC(=O)NC2CCNCC2)CC1=O` (stereo partly drawn) [17-10, 3β-O-(3′,3′-Dimethylsuccinyl)-17β-(N′-piperidin-4-yl-ureido)-21-oxolup-18-ene] gave a pIC50 of less than 6.00. With `CC(C)C1=C2C3CCC4[C@@]5(C)CC[C@H](OC(=O)CC(C)(C)C(=O)O)C(C)(C)C5CC[C@@]4(C)[C@]3(C)CC[C@@]2(NC(=O)OC2CCCC2)CC1=O` (stereo partly drawn) [20-4, 3β-O-(3′,3′-Dimethylsuccinyl)-17β-cyclopentyloxycarbonylamino-21-oxolup-18-ene] the pIC50 was greater than 6.70. `CC(C)C1=C2C3CCC4[C@@]5(C)CC[C@H](OC(=O)CC(C)(C)C(=O)O)C(C)(C)C5CC[C@@]4(C)[C@]3(C)CC[C@@]2(NC(=O)OC2CCC2)CC1=O` (stereo partly drawn) [20-9, 3β-O-(3′,3′-Dimethylsuccinyl)-17β-cyclobutyloxycarbonylamino-21-oxolup-18-ene] gave a pIC50 greater than 6.70. `Cc1ccc(C(=O)N[C@@]23CC[C@]4(C)C(CCC5[C@@]6(C)CC[C@H](OC(=O)CC(C)(C)C(=O)O)C(C)(C)C6CC[C@]54C)C2=C(C(C)C)C(=O)C3)s1` (stereo partly drawn) [19-77, 3β-O-(3′,3′-Dimethylsuccinyl)-17β-(5-methyl-thiophene-2-amido)-21-oxolup-18-ene] gave a pIC50 greater than 6.70. Compound `CC(C)C1=C2C3CCC4[C@@]5(C)CC[C@H](OC(=O)CC(C)(C)C(=O)O)C(C)(C)C5CC[C@@]4(C)[C@]3(C)CC[C@@]2(NC(=O)c2cscn2)CC1=O` (stereo partly drawn) [19-27, 3β-O-(3′,3′-Dimethylsuccinyl)-17β-(1,3-thiazole-4-amido)-21-oxolup-18-ene] has a pIC50 greater than 6.70. `CC(C)C1=C2C3CCC4[C@@]5(C)CC[C@H](OC(=O)CC(C)(C)C(=O)O)C(C)(C)C5CC[C@@]4(C)[C@]3(C)CC[C@@]2(NC(=O)c2ccsc2)CC1=O` (stereo partly drawn) [19-78, 3β-O-(3′,3′-Dimethylsuccinyl)-17β-(thiophene-3-amido)-21-oxolup-18-ene] showed a pIC50 greater than 6.70. `CC(C)C1=C2C3CCC4[C@@]5(C)CC[C@H](OC(=O)CC(C)(C)C(=O)O)C(C)(C)C5CC[C@@]4(C)[C@]3(C)CC[C@@]2(NC(=O)N2CCC(N(C)C(=O)OC(C)(C)C)CC2)CC1=O` (stereo partly drawn) [17-36, 3β-O-(3′,3′-Dimethylsuccinyl)-17β-[(4-(tert-butyloxycarbonyl-methyl-amino)-piperidine-1-carbonyl)-amino]-21-oxolup-18-ene] gave a pIC50 greater than 6.70. Compound `CC(C)C1=C2C3CCC4[C@@]5(C)CC[C@H](OC(=O)CC(C)(C)C(=O)O)C(C)(C)C5CC[C@@]4(C)[C@]3(C)CC[C@@]2(NC(=O)c2ccncn2)CC1=O` (stereo partly drawn) [19-25, 3β-O-(3′,3′-Dimethylsuccinyl)-17β-(pyrimidine-4-amido)-21-oxolup-18-ene] has a pIC50 greater than 6.70. In the case of `CC(C)C1=C2[C@H]3CC[C@@H]4[C@@]5(C)CC[C@H](OC(=O)CC(C)(C)C(=O)O)C(C)(C)[C@@H]5CC[C@@]4(C)[C@]3(C)CC[C@@]2(NC(=O)[C@@H]2CCCCN2C)CC1=O` [19-65, 3β-O-(3′,3′-Dimethylsuccinyl)-17β-((S)-1-methylpiperidine-2-amido)-21-oxolup-18-ene], the pIC50 was greater than 6.70. With `CC(C)C1=C2C3CCC4[C@@]5(C)CC[C@H](OC(=O)CC(C)(C)C(=O)O)C(C)(C)C5CC[C@@]4(C)[C@]3(C)CC[C@@]2(NC(=O)OC2CCCCC2)CC1=O` (stereo partly drawn) [20-5, 3β-O-(3′,3′-Dimethylsuccinyl)-17β-cyclohexyloxycarbonylamino-21-oxolup-18-ene] the pIC50 was greater than 6.70. Compound `CC(C)C1=C2[C@H]3CC[C@@H]4[C@@]5(C)CC[C@H](OC(=O)CC(C)(C)C(=O)O)C(C)(C)[C@@H]5CC[C@@]4(C)[C@]3(C)CC[C@@]2(NC(=O)NCc2ccccc2)CC1=O` [17-1, 3β-O-(3′,3′-Dimethylsuccinyl)-17β[N′-(benzyl)ureido]-21-oxolup-18-ene] has a pIC50 greater than 6.70. Compound `CC(C)C1=C2C3CCC4[C@@]5(C)CC[C@H](OC(=O)CC(C)(C)C(=O)O)C(C)(C)C5CC[C@@]4(C)[C@]3(C)CC[C@@]2(NC(=O)NCC2CCN(C)CC2)CC1=O` (stereo partly drawn) [17-28, 3β-O-(3′,3′-Dimethylsuccinyl)-17β-[N′-(1-methyl-piperidin-4-ylmethyl)-ureido]-21-oxolup-18-ene] has a pIC50 of less than 6.00. `CC(C)C1=C2C3CCC4[C@@]5(C)CC[C@H](OC(=O)CC(C)(C)C(=O)O)C(C)(C)C5CC[C@@]4(C)[C@]3(C)CC[C@@]2(NC(=O)C2CCOCC2)CC1=O` (stereo partly drawn) [19-30, 3β-O-(3′,3′-Dimethylsuccinyl)-17β-tetrahydro-pyran-4-carbonylamino-21-oxolup-18-ene] showed a pIC50 greater than 6.70. With `CC(C)C1=C2C3CCC4[C@@]5(C)CC[C@H](OC(=O)CC(C)(C)C(=O)O)C(C)(C)C5CC[C@@]4(C)[C@]3(C)CC[C@@]2(NC(=O)OC2CCSCC2)CC1=O` (stereo partly drawn) [20-14, 3β-O-(3′,3′-Dimethylsuccinyl)-17β-(tetrahydro-thiopyran-4-oxycarbonylamino)-21-oxolup-18-ene] the pIC50 was greater than 6.70.

Same assay, conditions: Human immunodeficiency virus 1, MT2 cells, without human serum, average IC50 if tested more than once, read-out: MT2 (HIVIIIB) IC50 range
For `CCNC(=O)N[C@@]12CC[C@]3(C)[C@H](CC[C@@H]4[C@@]5(C)CC[C@H](OC(=O)CC(C)(C)C(=O)O)C(C)(C)[C@@H]5CC[C@]43C)C1=C(C(C)C)C(=O)C2` [17-2, 3β-O-(3′,3′-Dimethylsuccinyl)-17β-[N′-(ethyl)ureido]-21-oxolup-18-ene], the pIC50 was greater than 6.70. For `CC(C)C1=C2[C@H]3CC[C@@H]4[C@@]5(C)CC[C@H](OC(=O)CC(C)(C)C(=O)O)C(C)(C)[C@@H]5CC[C@@]4(C)[C@]3(C)CC[C@@]2(NC(=O)c2ccnn2C)CC1=O` [19-34, 3β-O-(3′,3′-Dimethylsuccinyl)-17β-(1-methyl-1H-pyrazole-5-amido)-21-oxolup-18-ene], the pIC50 was greater than 6.70. Compound `CC(C)C1=C2[C@H]3CC[C@@H]4[C@@]5(C)CC[C@H](OC(=O)CC(C)(C)C(=O)O)C(C)(C)[C@@H]5CC[C@@]4(C)[C@]3(C)CC[C@@]2(NC(=O)NCc2ccccc2)CC1=O` [17-1, 3β-O-(3′,3′-Dimethylsuccinyl)-17β[N′-(benzyl)ureido]-21-oxolup-18-ene] has a pIC50 greater than 6.70. `CC(C)C1=C2[C@H]3CC[C@@H]4[C@@]5(C)CC[C@H](OC(=O)CC(C)(C)C(=O)O)C(C)(C)[C@@H]5CC[C@@]4(C)[C@]3(C)CC[C@@]2(NC(=O)CC(C)(C)C(=O)O)CC1=O` [19-3, 3β-O,17β-N-bis(3′,3′-dimethylsuccinyl)-21-oxolup-18-ene] showed a pIC50 greater than 6.70.
